Test results: PubChem BioAssay AID1996
Values after ≈ are worked out from the molar mass of the structure shown.

Settings: buffer; pH 7.4; 200.0 µM

Structure (SMILES)	solubility kinetic
COc1ccc(NC(=S)N2CCN(S(C)(=O)=O)CC2)cc1	> 49.4 µg/mL
Cc1cccc(NC(=O)CCN2CCN(C)CC2)c1.Cl	> 44.7 µg/mL
CCNc1nc(SCC(N)=O)nc2sc3c(c12)CCN(C)C3	> 50.6 µg/mL
Cc1cccc(Oc2nc(-c3ccccn3)nc3ccccc23)c1	27.6 µg/mL (≈ 88.1 µM)
O=C(Nc1ccccn1)c1ccc2ccccc2c1O	31.4 µg/mL (≈ 119 µM)
CCOC(=O)N1CCN(Cc2ccc(O)c3ncccc23)CC1	34.3 µg/mL (≈ 109 µM)
O=C(O)/C=C/C(=O)NCCCc1ccccc1	19.8 µg/mL (≈ 84.9 µM)
O=C(O)C1C2C=CC(C2)C1C(=O)NCc1ccccc1F (stereo unspecified)	> 43.4 µg/mL
N#CC1c2ccccc2C=CN1C(=O)c1ccccc1 (stereo unspecified)	27.6 µg/mL (≈ 106 µM)
O=C(c1ccc(F)cc1)N1CCOCC1	> 31.4 µg/mL
Cc1cccc(C)c1N1C(=O)CN(Cc2ccccc2)C1=S	27.8 µg/mL (≈ 89.6 µM)
COCCNc1nc(C)c(C(C)=O)s1	25.7 µg/mL (≈ 120 µM)
O=C1CSC(c2cccnc2)N1Cc1ccc(Cl)c(Cl)c1 (stereo unspecified)	48.7 µg/mL (≈ 144 µM)
Cc1ccc(CC(=O)Nc2ccc(Cl)cn2)cc1	8.4 µg/mL (≈ 32.2 µM)
Cc1cc(NC(=O)c2ccc(C)o2)no1	> 30.9 µg/mL
COc1ccc(OC)c(N(CC(=O)Nc2cccc3ccccc23)S(C)(=O)=O)c1	43 µg/mL (≈ 104 µM)
O=C(/C=C/c1cccc([N+](=O)[O-])c1)OCC(=O)N1CCN(C(=O)c2ccco2)CC1	30.9 µg/mL (≈ 74.7 µM)
CCOC(=O)C(=O)NCC(c1ccco1)S(=O)(=O)c1cccs1 (stereo unspecified)	> 53.6 µg/mL
Nc1ccc(C(=O)NCC2(c3ccccc3)CCCC2)cc1	17.8 µg/mL (≈ 60.5 µM)
O=C(Nc1cccnc1)C1CC(=O)N(c2ccc(F)cc2)C1 (stereo unspecified)	> 44.9 µg/mL
Cc1c(C)n(CCN(C)C)c2ncnc(NCc3ccccc3)c12	42.9 µg/mL (≈ 133 µM)

Structure (SMILES)	solubility kinetic
O=C(CN1CCOCC1)NNc1c2ccccc2nc2ccccc12	> 50.5 µg/mL
Cc1cc(C)cc(C(=O)NC(=S)Nc2cccnc2)c1	8.4 µg/mL (≈ 29.4 µM)
CCCSc1ncccc1C(=O)O	> 29.6 µg/mL
OC(CNCCc1c[nH]c2ccccc12)C(F)(F)F (stereo unspecified)	> 40.8 µg/mL
COc1cccc(CNC(=O)COC(=O)c2ccc(Cl)s2)c1	1.4 µg/mL (≈ 4.12 µM)
COc1ccccc1CCC(=O)NNC(=O)c1ccncc1	> 44.9 µg/mL
CC(=O)C1=C(O)C(=O)N(c2ccc(O)cc2)C1c1ccc(C)cc1 (stereo unspecified)	> 48.5 µg/mL
Cn1cc([N+](=O)[O-])cc1-c1nc2ccccc2n1C	> 38.4 µg/mL
CCOc1ccccc1C(=O)NCCCCNC(=O)c1ccccc1OCC	10.2 µg/mL (≈ 26.5 µM)
O=C(/C=C/c1c(F)cccc1Cl)Nc1cccnc1	13.7 µg/mL (≈ 49.5 µM)
C=CCn1c(SCC(N)=O)nnc1-c1cnccn1	> 41.4 µg/mL
COc1ccc(C(C)(C)C)cc1NC(=O)COC(=O)C(C)C	33.1 µg/mL (≈ 108 µM)
O=C(Nc1ccc(O)cc1)N1CCOCC1	> 33.3 µg/mL
CN(C)C(CNS(=O)(=O)c1cc([N+](=O)[O-])ccc1Cl)c1ccco1.Cl (stereo unspecified)	20.6 µg/mL
COc1ccc(CCC(=O)Nc2ccc(Cn3ccnc3)cc2)cc1	44.2 µg/mL (≈ 132 µM)
O=[N+]([O-])c1cccnc1Oc1ccccc1F	> 35.1 µg/mL
CCSc1nc2sc3c(c2c(=O)n1-c1ccc(C)cc1)CCN(C)C3	35.6 µg/mL (≈ 95.8 µM)
O=C(O)c1ccccc1S(=O)(=O)CC(=O)N1CCCCC1	> 46.7 µg/mL
Cc1c(NCc2ccncc2)cccc1C(=O)O	> 36.3 µg/mL
CCOc1ccc(NC(=O)CNC(=O)Cc2ccccc2)cc1	4.4 µg/mL (≈ 14.1 µM)
O=C(O)c1ccc2c(c1)C(=O)N(c1cc([N+](=O)[O-])ccn1)C2=O	> 47 µg/mL

Structure (SMILES)	solubility kinetic
CN1CCN/C1=C(/C(Cl)=C(Cl)Cl)[N+](=O)[O-]	> 40.9 µg/mL
O=C(C[n+]1ccccn1)c1ccccc1.[Br-]	> 41.9 µg/mL
CCSc1nnc(SCC(=O)Nc2cc(C)on2)s1	> 47.5 µg/mL
Cc1ccc(CNC(=O)CSc2nc(C)cs2)cc1	> 43.9 µg/mL
Nc1ccccc1N1C(=O)c2cccc3cccc(c23)C1=O	4.3 µg/mL (≈ 14.9 µM)
CCC(Oc1ccccc1)C(=O)Nc1ncc([N+](=O)[O-])s1 (stereo unspecified)	> 46.1 µg/mL
Cc1ccc(S(=O)(=O)NCc2ccccc2)s1	> 40.1 µg/mL
CCS(=O)(=O)N1CCCC(C(=O)c2ccc(OC)cc2C)C1 (stereo unspecified)	42 µg/mL (≈ 129 µM)
CN(C(=O)c1ccc2nccnc2c1)C1CCCCC1	> 40.4 µg/mL
N#Cc1ccccc1CN1C(=O)NC2(CCCCCC2)C1=O	> 44.6 µg/mL
O=C(/C=C/c1ccccc1Cl)OCC(=O)c1ccc[nH]1	6.3 µg/mL (≈ 21.7 µM)
O=[N+]([O-])c1ccc(O)c(Nc2c([N+](=O)[O-])ccc3nonc23)c1	> 47.6 µg/mL
Cc1cccc(OCCN2CCOCC2)c1C	24.4 µg/mL (≈ 104 µM)
O=c1oc2c(-c3ccc([N+](=O)[O-])cc3)cc(O)cc2s1	< 0.6 µg/mL
O=C(COC(=O)c1cc(=O)[nH]c2ccccc12)c1ccccc1	8.8 µg/mL (≈ 28.6 µM)
O=c1cc(COc2ccccc2[N+](=O)[O-])nc2sccn12	2.7 µg/mL (≈ 8.9 µM)
C(=N\Nc1ccccn1)/c1cccnc1	> 29.7 µg/mL
CCSc1nc(O)cc(=O)n1CC	> 30 µg/mL
Nc1cc2c(cc1Cl)N(Cc1ccccc1)C(=O)CO2	> 43.3 µg/mL
